The assay deals with ATX (Mus musculus (Mouse), UniProt Q9R1E6). The experiment in a line: Mice serum ATX inhibitory activity (IC50 determination). The format is biochemical. The procedure:
ATX Inhibitory activity was determined in a biochemical or whole blood assay as described previously (Bretschneider, T. et al., SLAS Discov 2017, 22, 425). The biochemical reaction consisted of 50 mM Tris (pH 8.0), 3 mM KCl, 1 mM CaCl2, 1 mM Mg Cl2, […] NaCl and 0.1% bovine serum albumin, which was supplemented with 5 nM recombinant rat ATX, 5 μM 18:1 LPC and the test compound (0.1-10 μM). The reaction was stopped at 2 h by the addition of butanol, prior to the RapidFire-MS-based analysis.
The whole blood assay consisted of 45 μL μL heparinized mice/rat whole blood and the test compound (0.12-100 μM). The reaction was stopped after 1 h at 37° C. by addition of 100 μL 40 mM disodium hydrogen phosphate buffer containing 30 mM citric acid (pH 4) and 1 μM 17:0 LPA (internal standard). Afterwards the samples were treated a described above and analysed by LC-MS/MS. The data was analyzed using graph pad prism (v 7.03) to arrive at the half-maximal inhibitory concentrations (IC50) of the test compounds.

The compound `CC(C)[C@@H](NC(=O)c1cc(C(F)(F)F)ccc1F)C(=O)N1CCC2(CC1)C(=O)N(C)CC2c1ccc(F)cc1` (stereo partly drawn) [Compound 103, 2-fluoro-N-((2R)-1-(4-(4-fluorophenyl)-2-methyl-1-oxo-2,8-diazaspiro[4.5]decan-8-yl)-3-methyl-1-oxobutan-2-yl)-5-(trifluoromethyl)benzamide] registered an IC50 of 6.9 nM.
Turning to `CCN1CC(c2ccc(F)cc2)C2(CCN(C(=O)[C@H](NC(=O)c3cc(C(F)(F)F)ccc3F)C(C)C)CC2)C1=O` (stereo partly drawn) [Compound 104, N-((2R)-1-(2-ethyl-4-(4-fluorophenyl)-1-oxo-2,8-diazaspiro[4.5]decan-8-yl)-3-methyl-1-oxobutan-2-yl)-2-fluoro-5-(trifluoromethyl)benzamide], the midpoint of inhibition, the IC50, lay at 11.7 nM.
Then `COc1ccc(F)c(C(=O)N[C@@H](C(=O)N2CCC3(CC2)C(=O)N(C)CC3c2ccccc2)C(C)C)c1` (stereo partly drawn) [Compound 105, 2-fluoro-5-methoxy-N-((2R)-3-methyl-1-(2-methyl-1-oxo-4-phenyl-2,8-diazaspiro[4.5]decan-8-yl)-1-oxobutan-2-yl)benzamide], with 25.6 nM.
Then `CC(C)[C@@H](NC(=O)c1cc(C(F)(F)F)ccc1F)C(=O)N1CCC2(CC1)C(=O)N(C)C=C2c1ccccc1` [Compound 106, (R)-2-fluoro-N-(3-methyl-1-(2-methyl-1-oxo-4-phenyl-2,8-diazaspiro[4.5]dec-3-en-8-yl)-1-oxobutan-2-yl)-5-(trifluoromethyl)benzamide], with 55.6 nM; and `CC(C)[C@@H](NC(=O)c1ccccc1F)C(=O)N1CCC2(CC1)C(=O)N(C)CC2c1ccccc1` (stereo partly drawn) [Compound 107, 2-fluoro-N-((2R)-3-methyl-1-(2-methyl-1-oxo-4-phenyl-2,8-diazaspiro[4.5]decan-8-yl)-1-oxobutan-2-yl)benzamide], with 66.8 nM.
Under `CC(C)[C@@H](NC(=O)c1cccc(C(F)(F)F)c1)C(=O)N1CCC2(CC1)C(=O)N(C)CC2c1ccccc1` (stereo partly drawn) [Compound 108, N-((2R)-3-methyl-1-(2-methyl-1-oxo-4-phenyl-2,8-diazaspiro[4.5]decan-8-yl)-1-oxobutan-2-yl)-3-(trifluoromethyl)benzamide] stands 16.4 nM; under `CC(C)[C@@H](NC(=O)c1cc(OC(F)(F)F)ccc1F)C(=O)N1CCC2(CC1)C(=O)N(C)CC2c1ccccc1` (stereo partly drawn) [Compound 110, 2-fluoro-N-((2R)-3-methyl-1-(2-methyl-1-oxo-4-phenyl-2,8-diazaspiro[4.5]decan-8-yl)-1-oxobutan-2-yl)-5-(trifluoromethoxy)benzamide], 3.8 nM; under `CC(C)[C@@H](NC(=O)c1cc(C(F)(F)F)ccc1F)C(=O)N1CCC2(CC1)C(=O)N(C(C)C)CC2c1ccc(F)cc1` (stereo partly drawn) [Compound 111, 2-fluoro-N-((2R)-1-(4-(4-fluorophenyl)-2-isopropyl-1-oxo-2,8-diazaspiro[4.5]decan-8-yl)-3-methyl-1-oxobutan-2-yl)-5-(trifluoromethyl)benzamide], 34.2 nM.
In the case of `CC(C)[C@@H](NC(=O)c1cc(C(F)(F)F)ccc1F)C(=O)N1CCC2(CC1)C(=O)N(CC1CC1)CC2c1ccc(F)cc1` (stereo partly drawn) [Compound 112, N-((2R)-1-(2-(cyclopropylmethyl)-4-(4-fluorophenyl)-1-oxo-2,8-diazaspiro[4.5]decan-8-yl)-3-methyl-1-oxobutan-2-yl)-2-fluoro-5-(trifluoromethyl)benzamide], the midpoint of inhibition, the IC50, lay at 73.4 nM.
Then `CC(C)[C@@H](NC(=O)c1cc(C(F)(F)F)ccc1F)C(=O)N1CCC2(CC1)C(=O)N(CC1CC1)CC2c1cccnc1` (stereo partly drawn) [Compound 113, N-((2R)-1-(2-(cyclopropylmethyl)-1-oxo-4-(pyridin-3-yl)-2,8-diazaspiro[4.5]decan-8-yl)-3-methyl-1-oxobutan-2-yl)-2-fluoro-5-(trifluoromethyl)benzamide], with 102 nM.

Usually IC50 stands for the midpoint of a concentration-inhibition curve. High values mean weaker potency in that assay, low ones greater potency in that assay.

For the origin of these results see patent US20240327407A1, “NOVEL INHIBITORS OF AUTOTAXIN” (CADILA HEAL THCARE LIMITED, priority 2021, published 2024).
